These results are taken from US20220370515A1, “MEDICAL COMPOSITIONS AND THEIR USE IN TREATING PANCREATIC CANCER” (BIOMILLENIA SAS, priority 2019, published 2022).

Structures are written as SMILES. Entries after “also recorded” stand apart in the source; their conditions may differ.

What all share (type): cell-based
The test system of assay [1] is Malassezia furfur. In words: Disc diffusion inhibition assay (Example 1). The conditions noted are these: M. furfur lawn; 6 mm discs soaked with 15 ul supernatant or ketoconazole 1 mg/ml in DMSO; 5 days incubation. Here is the method:
(§1) FIG. 1|Inhibition assays of the fungicide ketoconazole as positive control for inhibition and Kazachstania unispora supernatant on M. sympodialis, M. furfur, M. restricta and M. globosa. Inhibition assays were performed using the disc diffusion method. Discs were soaked with ketoconazole (1 mg/ml) or K. unispora supernatant and placed on agar plates containing a soft layer inoculated with a single culture of the different Malassezia species to be tested.
(§2) In order to identify strains inhibiting Malassezia growth, inhibition assays were performed using the disc diffusion method. This method consists in disposing discs imbibed with potential inhibitory substances on Petri plates containing a strain of interest. After optimal growth of the strain of interest, growth inhibition can be observed around discs soaked with substances having an inhibitory effect. Potential inhibitory substances tested in this experiment are supernatants obtained after individually culturing a collection of fungal and bacterial strains. After an incubation of 10 days in their optimal broth, each culture was centrifuged and the supernatant was filtered and further stored at −20° C. Ketoconazole, a fungicide, was used as a positive control for Malassezia growth inhibition. It was diluted in dimethyl sulfoxide at 1 mg/ml. The collection of supernantants was tested on the following species from the genus Malassezia: Malassezia restricta, Malassezia globosa, Malassezia furfur and Malassezia sympodialis. All strains were streaked from −80° C. stock on Modified Leeming and Notman (MLN) agar plates and incubated 10 days at 30° C. A 5 ml liquid culture of each species was made in MLN broth and incubated at 30° C. for 2 days for M. furfur and M. sympodialis and 5 days for M. restricta and M. globosa. To allow a lawn growth of the different Malassezia strains tested, Petri plates were prepared as follows: a bottom layer of 50 ml Modified Sabouraud Dextrose (MSD) agar was poured in Petri plates. The soft agar, constituting the top layer, was a mix of 12.5 ml MSD agar, 10.5 ml MLN broth and 2 ml of liquid culture. Plates were allowed to dry for one hour, then, 6 mm-diameter Whatman™ discs were soaked with 15 ul of each thawed supernatants and ketoconazole and placed on the soft agar plate containing the solidified Malassezia monoculture layer. After an incubation of 5 days, inhibition area could be easily observed around discs. […] The strain from which the inhibitory supernatant has been produced was further sequenced using the Sanger technology. The internal transcribed spacer (ITS) of this strain was taxonomically assigned to the yeast Kazachstania unispora (BLASTn, 99% identity, 99% query cover, e-value 0.00).
(In general: In agar diffusion tests the substance spreads into inoculated agar from a disc or well.)

Assay [2] concerns Malassezia globosa. In words: Disc diffusion inhibition assay (Example 1). The conditions noted are these: M. globosa lawn; 6 mm discs soaked with 15 ul supernatant or ketoconazole 1 mg/ml in DMSO; 5 days incubation. Here is the method: as §1, §2
The subject of assay [3] is Malassezia restricta. In words: Disc diffusion inhibition assay (Example 1). The conditions noted are these: M. restricta lawn; 6 mm discs soaked with 15 ul supernatant or ketoconazole 1 mg/ml in DMSO; 5 days incubation. Here is the method: as §1, §2
Assay [4] has as its system Malassezia sympodialis. In words: Disc diffusion inhibition assay (Example 1). The conditions noted are these: M. sympodialis lawn; 6 mm discs soaked with 15 ul supernatant or ketoconazole 1 mg/ml in DMSO; 5 days incubation. Here is the method: as §1, §2
Assay [5] relates to Malassezia globosa. In words: Modified disc diffusion assay with living culture (Example 2). The conditions noted are these: M. globosa lawn; discs soaked with 15 ul exponentially growing Acetobacter culture or ketoconazole 1 mg/mL in DMSO; 5 days incubation. Here is the method: (§3) FIG. 1|Inhibition assays of M. restricta and M. globose by growth of Acetobacter fabarum. Discs were soaked with ketoconazole (1 mg/ml in DMSO) or exponentially growing Acetobacter fabarum culture and placed on agar plates containing a soft layer inoculated with a single culture of the different Malassezia species to be tested. In the upper panel, inhibition of Malassezia globosa is shown; in the bottom panel, Malassezia restricta is shown.
(§4) In order to identify strains whose growth inhibits Malassezia, inhibition assays were performed using a modified disc diffusion method. This method is similar to the classical disk diffusion method that consists in depositing discs imbibed with potential inhibitory substances on Petri plates containing a strain of interest, except that the disks were imbibed with a living culture of an Acetobacter strain. After optimal growth of the strain of interest, growth inhibition can be observed around discs on which the growth of inhibitory bacteria has occurred. Ketoconazole (at 1 mg/mL in DMSO) was used as a positive control for Malassezia growth inhibition. The effect of growth of Acetobacter was tested on Malassezia restricta and Malassezia globosa. All Malassezia strains were streaked from −80° C. stock on Modified Leeming and Notman (MLN) agar plates and incubated 10 days at 30° C. […]

The subject of assay [6] is Malassezia restricta. The description is as above. The conditions noted are these: M. restricta lawn; discs soaked with 15 ul exponentially growing Acetobacter culture or ketoconazole 1 mg/mL in DMSO; 5 days incubation. Here is the method: as §3, §4

On to `CC(=O)N1CCN(c2ccc(OCC3COC(Cn4ccnc4)(c4ccc(Cl)cc4Cl)O3)cc2)CC1` (stereo not drawn) [ketoconazole], for which the “growth inhibition (inhibition halo around disc)” value is “inhibits growth of all 4 Malassezia species tested; also recorded: inhibited all 4 Malassezia species tested” in assay [1]; “inhibits growth of all 4 Malassezia species tested; also recorded: inhibited all 4 Malassezia species tested” in assay [2]; “inhibits growth of all 4 Malassezia species tested; also recorded: inhibited all 4 Malassezia species tested” in assay [3]; “inhibits growth of all 4 Malassezia species tested; also recorded: inhibited all 4 Malassezia species tested” in assay [4]; “inhibits growth of both Malassezia species tested; also recorded: inhibited both Malassezia restricta and Malassezia globose” in assay [5]; “inhibits growth of both Malassezia species tested; also recorded: inhibited both Malassezia restricta and Malassezia globose” in assay [6].
